Source: ChEMBL document CHEMBL1201862, “PubChem BioAssay data set” (2004)
The source made the active and inactive calls.

Key:
[1] = target: T1, Calpain-2 catalytic subunit (Sus scrofa, UniProt P43367); test: m-calpain protease blockers, concentration series – biochemical, fluorogenic peptide substrate, dose response (AID 1420); format: functional
T1 sequence (P43367 whole entry): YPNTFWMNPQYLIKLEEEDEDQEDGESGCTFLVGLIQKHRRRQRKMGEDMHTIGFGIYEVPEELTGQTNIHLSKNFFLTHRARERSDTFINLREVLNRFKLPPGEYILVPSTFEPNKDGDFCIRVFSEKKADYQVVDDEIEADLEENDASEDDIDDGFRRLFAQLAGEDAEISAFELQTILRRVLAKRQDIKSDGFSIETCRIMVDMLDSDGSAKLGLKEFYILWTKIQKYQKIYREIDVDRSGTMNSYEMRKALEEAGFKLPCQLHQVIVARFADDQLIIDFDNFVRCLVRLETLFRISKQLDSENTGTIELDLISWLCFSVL

SN12K1 = test: cells; format: functional; conditions: Homo sapiens
P388 = test: cells; format: functional; conditions: Mus musculus
P388/ADR = test: cells; format: functional; conditions: Mus musculus
[2] = target: T2, Carboxy-terminal domain RNA polymerase II polypeptide A small phosphatase 1 (Homo sapiens, UniProt Q9GZU7); test: CTDSP1 inhibitors, concentration-response, biochemical, absorbance readout, ultra-high-throughput screen actives (AID 540297); format: functional
T2 sequence (Q9GZU7 whole entry): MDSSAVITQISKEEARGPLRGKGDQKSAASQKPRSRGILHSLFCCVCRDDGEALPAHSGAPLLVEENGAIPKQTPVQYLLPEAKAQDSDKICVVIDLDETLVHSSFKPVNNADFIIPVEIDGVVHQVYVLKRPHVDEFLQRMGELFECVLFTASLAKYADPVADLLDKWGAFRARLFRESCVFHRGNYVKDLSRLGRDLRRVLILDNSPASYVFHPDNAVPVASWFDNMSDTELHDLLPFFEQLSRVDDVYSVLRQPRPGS

[3] = target: T3, Polyadenylate-binding protein 1 (Homo sapiens, UniProt P11940); test: MLLE binding blockers, Cy5 peptide tracer – biochemical, fluorescence polarization, Cy5-PAM2 peptide, secondary, miRNA deadenylation inhibitor project, dose response (AID 602260); format: functional; conditions: read-out: IC50_Mean
[4] = target: T3, Polyadenylate-binding protein 1; test: MLLE domain peptide-binding blockers, IC50 – biochemical, fluorescence polarization, FITC-PAM2 peptide, dose response (AID 602259); format: functional; conditions: read-out: IC50_Mean
Cytochrome P450 3A4 = Cytochrome P450 3A4 (Homo sapiens, UniProt P08684);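 further: CYP3A4 tested as one member of a cytochrome P450 panel screen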
Cytochrome P450 1A2 = target: T4, Cytochrome P450 1A2 (Homo sapiens, UniProt P05177);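 further: PubChem cytochrome P450 panel assay, CYP1A2 panel member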
T4 sequence (P05177 whole entry): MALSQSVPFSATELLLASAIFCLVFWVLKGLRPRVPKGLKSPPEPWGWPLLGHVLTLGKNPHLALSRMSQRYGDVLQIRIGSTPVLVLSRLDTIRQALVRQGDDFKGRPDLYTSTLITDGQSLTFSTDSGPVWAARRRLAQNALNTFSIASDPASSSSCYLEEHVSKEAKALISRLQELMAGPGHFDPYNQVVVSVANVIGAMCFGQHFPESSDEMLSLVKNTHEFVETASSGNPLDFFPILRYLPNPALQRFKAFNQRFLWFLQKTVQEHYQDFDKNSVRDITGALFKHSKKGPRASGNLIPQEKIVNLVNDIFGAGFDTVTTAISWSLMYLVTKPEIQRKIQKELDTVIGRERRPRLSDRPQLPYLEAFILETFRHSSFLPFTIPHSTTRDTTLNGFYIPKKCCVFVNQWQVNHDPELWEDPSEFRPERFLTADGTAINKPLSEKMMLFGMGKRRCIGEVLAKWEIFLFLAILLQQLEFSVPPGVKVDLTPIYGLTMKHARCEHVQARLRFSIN

[5] = target: Induced myeloid leukemia cell differentiation protein Mcl-1 (Homo sapiens, UniProt Q07820); format: functional
[6] = viability of uninfected HEp-2 cells – cell-based, HTS, cytotoxicity control for RSV inhibitor project, dose response (AID 2410); format: functional; conditions: human respiratory syncytial virus
[7] = target: T5, Rac GTPase-activating protein 1 (Homo sapiens, UniProt Q9H0H5); test: blockers of MgcRacGAP-driven Rac1 GTP hydrolysis – biochemical, ADP Hunter fluorescence, primary and confirmatory, confirmation (AID 624330); format: functional
T5 sequence (Q9H0H5 whole entry): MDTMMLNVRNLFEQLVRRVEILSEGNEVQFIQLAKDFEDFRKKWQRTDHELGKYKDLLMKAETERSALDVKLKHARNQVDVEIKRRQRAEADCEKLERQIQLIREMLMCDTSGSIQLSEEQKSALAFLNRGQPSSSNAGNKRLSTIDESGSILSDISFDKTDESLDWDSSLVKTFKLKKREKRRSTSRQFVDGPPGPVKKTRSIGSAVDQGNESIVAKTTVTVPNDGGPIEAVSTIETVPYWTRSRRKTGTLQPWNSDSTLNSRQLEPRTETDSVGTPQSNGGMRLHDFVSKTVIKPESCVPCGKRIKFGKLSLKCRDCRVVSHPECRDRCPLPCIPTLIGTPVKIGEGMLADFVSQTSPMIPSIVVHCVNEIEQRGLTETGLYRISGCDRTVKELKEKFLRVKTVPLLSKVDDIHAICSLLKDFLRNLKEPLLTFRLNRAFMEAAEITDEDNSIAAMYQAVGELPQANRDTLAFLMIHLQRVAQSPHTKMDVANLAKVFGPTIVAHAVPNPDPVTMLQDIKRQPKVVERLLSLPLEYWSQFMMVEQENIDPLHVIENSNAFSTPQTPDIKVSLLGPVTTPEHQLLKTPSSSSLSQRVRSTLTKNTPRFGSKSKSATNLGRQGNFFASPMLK

[8] = microbe, parasite or virus in culture; format: functional; conditions: Mycobacterium tuberculosis

Sequence of Induced myeloid leukemia cell differentiation protein Mcl-1 (Q07820 whole entry): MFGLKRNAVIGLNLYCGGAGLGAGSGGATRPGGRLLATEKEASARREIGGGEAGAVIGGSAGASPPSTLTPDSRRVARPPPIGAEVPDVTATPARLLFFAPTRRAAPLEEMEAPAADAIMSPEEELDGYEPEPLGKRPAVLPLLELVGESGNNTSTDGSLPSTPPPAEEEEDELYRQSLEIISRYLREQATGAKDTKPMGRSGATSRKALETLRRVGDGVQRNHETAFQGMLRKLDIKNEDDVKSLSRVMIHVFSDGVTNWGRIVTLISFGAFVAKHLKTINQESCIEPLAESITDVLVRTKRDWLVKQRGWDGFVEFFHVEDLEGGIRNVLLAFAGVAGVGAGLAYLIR
T3 sequence (P11940 whole entry, the tested form may be a part): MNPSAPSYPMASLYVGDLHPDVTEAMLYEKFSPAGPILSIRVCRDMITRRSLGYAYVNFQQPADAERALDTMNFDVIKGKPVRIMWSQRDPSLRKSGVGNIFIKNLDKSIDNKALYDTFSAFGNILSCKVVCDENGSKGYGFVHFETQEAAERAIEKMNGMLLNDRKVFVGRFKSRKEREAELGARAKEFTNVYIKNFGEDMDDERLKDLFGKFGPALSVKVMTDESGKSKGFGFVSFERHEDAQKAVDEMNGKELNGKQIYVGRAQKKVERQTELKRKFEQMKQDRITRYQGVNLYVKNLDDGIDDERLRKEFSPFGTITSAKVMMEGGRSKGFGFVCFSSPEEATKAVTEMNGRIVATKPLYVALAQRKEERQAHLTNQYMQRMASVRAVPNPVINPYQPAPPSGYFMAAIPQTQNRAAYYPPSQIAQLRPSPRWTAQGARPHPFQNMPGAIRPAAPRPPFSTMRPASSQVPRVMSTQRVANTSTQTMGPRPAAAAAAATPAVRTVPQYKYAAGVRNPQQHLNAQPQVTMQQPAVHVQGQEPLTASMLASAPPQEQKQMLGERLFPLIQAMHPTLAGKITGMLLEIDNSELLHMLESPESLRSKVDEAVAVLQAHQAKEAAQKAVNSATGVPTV
Sequence of Cytochrome P450 3A4 (P08684 whole entry): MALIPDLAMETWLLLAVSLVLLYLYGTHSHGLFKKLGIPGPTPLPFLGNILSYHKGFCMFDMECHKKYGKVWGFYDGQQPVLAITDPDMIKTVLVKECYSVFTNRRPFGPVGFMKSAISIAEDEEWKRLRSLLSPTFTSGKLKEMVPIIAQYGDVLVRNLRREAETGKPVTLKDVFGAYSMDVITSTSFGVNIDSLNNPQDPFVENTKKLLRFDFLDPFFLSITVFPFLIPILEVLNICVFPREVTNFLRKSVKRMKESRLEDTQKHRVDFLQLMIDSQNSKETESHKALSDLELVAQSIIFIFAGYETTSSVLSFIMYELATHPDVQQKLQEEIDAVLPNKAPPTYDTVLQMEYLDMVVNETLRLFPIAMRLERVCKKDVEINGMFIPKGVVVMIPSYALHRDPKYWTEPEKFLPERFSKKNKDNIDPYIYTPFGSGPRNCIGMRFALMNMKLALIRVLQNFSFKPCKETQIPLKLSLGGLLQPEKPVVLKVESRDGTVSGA

**Q.** Which IC50 [1] does the source give for SC1=NC[C@H](Cc2cccc3ccccc23)N1CC1CCCCC1 here?
**A.** > 50 µM (not active)

**Q.** For CCCNC(=O)C(C)C1CCC2(C)C=CC(=O)C(C)=C2C1O (stereo not drawn), which GI50 (SN12K1) is on record?
**A.** > 100 µM (inactive)

**Q.** What about the GI50 (P388) of the same compound?
**A.** > 100 µM (inactive)

**Q.** And the GI50 (P388/ADR)?
**A.** > 100 µM (inactive)

**Q.** With Cc1cc([N+](=O)[O-])c(-c2ccc(/C=N/n3cnnc3)o2)cc1Cl as the compound, how does the IC50 [1] read?
**A.** 1.59 µM (not active)

**Q.** For CC(=O)c1cccc(NC(=O)COc2cc3oc(=O)c(CC(C)O)c(C)c3cc2Cl)c1 (stereo not drawn), which IC50 [2] is on record?
**A.** 12.5 µM (active)

**Q.** Which results are given for CCCn1c(N)c(C(=S)NC(=O)C2CC2)c(=O)n(C)c1=O?
**A.** IC50 [3]: > 66 µM (inactive); IC50 [4]: > 66 µM (inactive)

**Q.** Which IC50 [1] does the source give for CCCCc1ccc(NC(=O)C2CCCO2)cc1 (stereo not drawn) here?
**A.** 13.4 µM (not active)

**Q.** Which results are given for CCOCC(=O)Nc1nnc(COc2ccc(Cl)cc2)s1?
**A.** IC50 [3]: > 66 µM (inactive); IC50 [4]: > 66 µM (inactive)

**Q.** With O=C(/C=C/c1cccs1)N1CCOCC1 as the compound, how does the IC50 [1] read?
**A.** > 50 µM (not active)

**Q.** With CC1CCCN(C(=O)c2sc3cc([N+](=O)[O-])ccc3c2Cl)C1 (stereo not drawn) as the compound, how does the AC50 (Cytochrome P450 3A4) read?
**A.** 17.8 µM (inconclusive)

**Q.** And the AC50 (Cytochrome P450 1A2)?
**A.** 15.8 µM (inconclusive)

**Q.** And the IC50 [1]?
**A.** 7.61 µM (active)

**Q.** With CCNc1nc(NCC)nc(C(=O)NN)n1 as the compound, how does the IC50 [5] read?
**A.** 2.32 µM (active)

**Q.** For CCN(CC)c1ccc(NC(=O)c2ccccc2OCC(=O)OC)cc1, which IC50 [5] is on record?
**A.** 6.35 µM (not active)

**Q.** Which results are given for C[C@H]1COC(c2ccccn2)=N1?
**A.** GI50 (SN12K1): > 100 µM (inactive); GI50 (P388): > 100 µM (inactive); GI50 (P388/ADR): > 100 µM (inactive)

**Q.** Which CC50 [6] does the source give for COc1ccc(CNc2ccc([N+](=O)[O-])cc2C)cc1 here?
**A.** 35 µM (active)

**Q.** And the IC50 [1]?
**A.** 3.81 µM (not active)

**Q.** For CN1C(=O)c2ccc(C(=O)NCc3ccc4c(c3)OCO4)cc2C1=O, which IC50 [1] is on record?
**A.** 23.2 µM (not active)

**Q.** Which IC50 [7] does the source give for CCOc1cc(/C=C(\C#N)c2n[nH]c(N)c2C#N)ccc1O here?
**A.** 17.1 µM (active)

**Q.** What about the IC50 [5] of the same compound?
**A.** 5.24 µM (active)

**Q.** With COc1ccc2nc3c(C(=O)NCCN(C)C)cccc3cc2c1 as the compound, how does the GI50 (SN12K1) read?
**A.** 0.944 µM (active)

**Q.** And the GI50 (P388)?
**A.** 0.305 µM (active)

**Q.** What about the GI50 (P388/ADR) of the same compound?
**A.** 0.652 µM (active)

**Q.** Which results are given for CC(/C=N/NC(=O)c1cc(-c2ccc3ccccc3c2)[nH]n1)=C\c1ccco1?
**A.** CC50 [8]: 37.2 µM (active); IC50 [5]: 4.1 µM (active)

**Q.** Which results are given for CC12CCC3C(CCC4=CC(O)CCC43C=O)C1(O)CCC2c1ccc(=O)oc1 (stereo not drawn)?
**A.** GI50 (SN12K1): 0.05 µM (active); GI50 (P388): < 0.1 µM (active); GI50 (P388/ADR): 0.21 µM (active)
